Reference: US20170049786A1, “MTOR PATHWAY INHIBITORS FOR TREATING OCULAR DISORDERS” (Santen Pharmaceutical Co., Ltd., priority 2009, published 2017)
pIC50: −log10 of the molar value. “And” between values parts separate entries of the source, which are not always exact repeats. Equal values may be shown once. Read-outs that look alike come from different tables or passages of the source. Blank lines part the entries; values can stand above or below the compound they belong to.

What was measured:
[1] = tested on: Human umbilical vein endothelial cells (HUVEC); test: Inhibition of VEGF-induced proliferation, BrdU incorporation; assay type: cell-based; conditions: for pIC50: Homo sapiens, 12.5 ng/mL VEGF
Description: The objective of this study was to evaluate the anti-proliferative effects of various therapeutic agents (everolimus, sirolimus, tacrolimus, temsirolimus, zotarolimus, PP242, PP30, Palomid 529, WYE-354, and KU-0063794) by measuring bromodeoxyuridine (BrdU) incorporation into cellular DNA. The therapeutic agents were dissolved directly into class A vials in less than 1% DMSO. Human umbilical vein endothelial cells (HUVEC) were obtained from Lonza (Catalog No. CC-2517). Vascular endothelial growth factor (VEGF) was obtained from R&D Systems (Catalog No. 293-VE-010). A BrdU Assay kit was obtained from Calbiochem (Catalog No. Q1A58). The inhibitory effect of rapamycin on HUVEC proliferation has been described (Kwon et al., Invest Opththamol Vis Sci, 46:454-4699, 2005).
Early passage HUVEC were plated at 2,000 cells/well in 96-well plates for 24 hours. The cells were then starved for 24 hours by replacing medium with medium lacking serum and HUVEC medium growth factors. After overnight starvation, wells were inoculated with (i) medium containing 2.5% serum and 12.5 ng/mL VEGF, (ii) medium with 12.5 ng/mL VEGF, (iii) medium with 2.5% serum or (iv) medium without serum or VEGF. Control compounds and test compounds were added at eight to eleven concentrations of each compound. All wells were set up in four replicates. BrdU was added to the medium 72 hours after feeding. After the overnight labeling, the cells were assayed according the manufacturers instructions and the plates were read at OD450. Average absorbance for replicate wells was used to calculate IC50 for the compounds of Table 72-1.

[2] = cited from earlier work
[3] = Solubility profiles of therapeutic agents (Table 71-1); conditions: for physical state when formulated in PEG400: 3% therapeutic agent and 97% PEG400
Description: Various therapeutic agents (e.g., rapalogs and/or mTOR inhibitors) were formulated as liquid solutions or suspensions for ophthalmic administration by injection. The therapeutic agents of exemplary formulations were as follows: everolimus, sirolimus, temsirolimus, zotarolimus, PP242, PP30 and palomid 529.
Liquid formulations containing 3% therapeutic agent (everolimus, sirolimus, temsirolimus or zotarolimus) and 97% PEG400 were prepared.

[4] = in vivo; conditions: rabbit
Description: Both eyes (or one eye depending on the study) of each animal received one or two drops (40 μl per drop) of the studied formulations using a calibrated pipette on day 0 (day of dosing).
For Tables 3-6, the solution of Example 46 (formulation #340) was administered two drops twice a day on both eyes, one time for Group I, two drops once a day on one eye, one time for Group II, and two drops once a day on both eyes for 6 days in Group III. In Group II, the right eye (OD) but not the left eye (OS) received eye drops. In a further study, one drop of the formulation #340 (40 μL containing 880 μg rapamycin) was administered on day zero.
For FIGS. 5 and 6, the aqueous rapamycin-containing formulations #329 and #330 of Table 1 were administered two drops once or twice a day for up to 28 days. For FIGS. 7 and 8, the aqueous rapamycin-containing formulations #331 and #332 of Table 1 were administered two drops twice a day for 6 days.
For FIG. 10A-B one drop of an aqueous or a non-aqueous formulation containing about 0.2% rapamycin were administered to both eyes of rabbit subjects once a day for six days (day 0 to day 6). As used herein, the terms “aqueous” and “hydrophilic” refer to formulations in which the dominant component is an aqueous compound such as water (e.g., formulations #342 and #342 of Table 1), while the terms “non-aqueous” and “lipophilic” refer to formulation in which the dominant component is a non-aqueous compound such as PEG 400 (e.g., formulations #344 and #345 of Table 1). Rapamycin concentrations in the cornea, retina choroid and blood were measured at day 7 and day 14.
For FIG. 11 one drop of a non-aqueous formulation containing about 0.2% rapamycin (e.g., formulations #344 or #345) was administered to both eyes of rabbit subjects once a day on day 0, 7, 14 and 21. Rapamycin concentrations in the cornea, retina choroid and aqueous humor were measured on days 3, 10, 17, 24 and 28.

[5] = Pilot pharmacokinetic study, intravitreal injection of rapalog/mTOR inhibitor formulations; concentration in the vitreous (FIGS. 17, 19, 20); conditions: 330 mcg by intravitreal injection of 10 μl of 3% agent in 97% PEG400; FIG. 17
Description: In a pilot pharmacokinetic study, 330 mcg of the therapeutic agent was administered to rabbits by intravitreal injection of a 10 μl volume.
In a pilot pharmacokinetic study, 220 mcg of the therapeutic agent was administered to rabbits by intravitreal injection of a 10 μl volume.

[6] = tested on: retinal and choroidal neovascularization (RNV and CNV); test: Inhibition of retinal and choroidal neovascularization in vivo (subretinal […]/bFGF/VEGF model, fluorescein angiography); set-up: species or system New Zealand white rabbits; conditions: six microliter intravitreal dose of 2% agent in 4% ethanol, 94% PEG400 on Day 8; compared with 50 microliter AVASTIN (25 mg/ml)
Description: The objective of this study was to evaluate the effects of various therapeutic agents (everolimus, sirolimus, temsirolimus, and zotarolimus) on retinal and choroidal neovascularization (RNV and CNV) in a rabbit model (Qiu et al., Exp Eye Res, 83:141-152, 2006). Liquid formulations containing 2% (w/w) of the therapeutic agents were prepared in 4% (w/w) ethanol, and 94% (w/w) PEG400. As a positive control, a formulation containing 25 mg/ml AVASTIN was used. As a negative control, vehicle (4% ethanol, 96% PEG400) was used. Recombinant human basic fibroblast growth factor (bFGF) and vascular endothelial growth factor (VEGF) were obtained from R&D Systems. New Zealand white rabbits were used in this study.
On Day 1, the right eye of each animal received a subretinal injection of 10-20 μL of […] containing 10 μg/0.1 mL b-FGF and 2 μg/0.1 mL VEGF. […]-containing formulations are kept on ice until administered. Briefly, the conjunctiva was opened and a small slit in the sclera was made to expose the vitreous. A cannula connected to a tuberculin syringe was inserted into the subretinal space and the […]/growth factor combination was delivered. The scleral and conjunctival opening were closed with a 7-0 Vicryl suture. […]

Compound: CO[C@H]1C[C@@H]2CC[C@@H](C)[C@@](O)(O2)C(=O)C(=O)N2CCCC[C@H]2C(=O)O[C@H]([C@H](C)C[C@@H]2CC[C@@H](OC(=O)C(C)(CO)CO)[C@H](OC)C2)CC(=O)[C@H](C)/C=C(\C)[C@@H](O)[C@@H](OC)C(=O)[C@H](C)C[C@H](C)/C=C/C=C/C=C/1C [temsirolimus]
pIC50 [1]: 7.80
Solubility, Aqueous ([2]; literature values): 10 to 20 µg/mL
Solubility, DMSO ([2]; literature values): >200 mg/mL
Solubility, Ethanol ([2]; literature values): >200 mg/mL

Solubility, PEG 400 [3]: >624 mg/g
physical state when formulated in PEG400 [3]: went into solution
Compound: CO[C@H]1C[C@@H]2CC[C@@H](C)[C@@](O)(O2)C(=O)C(=O)N2CCCC[C@H]2C(=O)O[C@H]([C@H](C)C[C@@H]2CC[C@@H](OCCO)[C@H](OC)C2)CC(=O)[C@H](C)/C=C(\C)[C@@H](O)[C@@H](OC)C(=O)[C@H](C)C[C@H](C)/C=C/C=C/C=C/1C [everolimus]
pIC50 [1]: 7.65
Solubility, Aqueous ([2]; literature values): 1 to 10.0 µg/mL
Solubility, DMSO ([2]; literature values): >100 mg/mL
Solubility, Ethanol ([2]; literature values): >100 mg/mL

Compound: CC(C)n1nc(-c2cc3cc(O)ccc3[nH]2)c2c(N)ncnc21 [PP242, 2-(4-Amino-1-isopropyl-1H-pyrazolo[3,4-d]pyrimidin-3-yl)-1H-indol-5-ol]
Solubility, PEG 400 [3]: >126 mg/g

Solubility, DMSO [3]: >472 mg/g
Solubility, PEG 400 [3]: 3 mg/g
physical state when formulated in PEG400 [3]: suspension
Rapamycin level, Blood ([4]; 1 day): 2.84 ng/mL
Rapamycin level, Blood ([4]; 3 day): 27.29 ng/mL
concentration at 1 day ([4]; Rapamycin level, Blood): 4.63 ng/mL
concentration at 3 day ([4]; Rapamycin level, Blood): 37.1 ng/mL
concentration at 8 day ([4]; Rapamycin level, Blood): 15.5 ng/mL
concentration at 10 day ([4]; Rapamycin level, Blood): 7.67 ng/mL
concentration at 12 day ([4]; Rapamycin level, Blood): 2.88 ng/mL
concentration at 14 day ([4]; Rapamycin level, Blood): 48.3 ng/mL
concentration at 8 day ([4]; Rapamycin level, Cornea): 169 ng/g
concentration at 10 day ([4]; Rapamycin level, Cornea): 110 ng/g
concentration at 12 day ([4]; Rapamycin level, Cornea): 97.9 ng/g
concentration at 14 day ([4]; Rapamycin level, Cornea): 84.2 ng/g
concentration remaining in the vitreous after a single injection [5]: Sustained concentrations
Compound: CO[C@H]1C[C@@H]2CC[C@@H](C)[C@@](O)(O2)C(=O)C(=O)N2CCCC[C@H]2C(=O)O[C@H]([C@H](C)C[C@@H]2CC[C@@H](O)[C@H](OC)C2)CC(=O)[C@H](C)/C=C(\C)[C@@H](O)[C@@H](OC)C(=O)[C@H](C)C[C@H](C)/C=C/C=C/C=C/1C [sirolimus, rapamycin]
pIC50 [1]: 7.53
Solubility, Ethanol ([2]; literature value): >90 mg/g
Solubility, Aqueous ([2]; literature values): 1 to 2.6 µg/mL

Compound: COc1ccc(COc2cc3oc(=O)c4cc(C(C)O)ccc4c3cc2OC)cc1 (stereo not shown) [palomid 529, 8-(1-hydroxy-ethyl)-2-methoxy-3-(4-methoxy-benzyloxy)-benzo[c]chromen-6-one]
potency as inhibitor of VEGF-induced proliferation relative to the other compounds tested [1]: less potent inhibitors of VEGF-induced proliferation than the other compounds tested

Compound: C=CC[C@@H]1/C=C(\C)C[C@H](C)C[C@H](OC)[C@H]2O[C@@](O)(C(=O)C(=O)N3CCCC[C@H]3C(=O)O[C@H](/C(C)=C/[C@@H]3CC[C@@H](O)[C@H](OC)C3)[C@H](C)[C@@H](O)CC1=O)[C@H](C)C[C@@H]2OC [tacrolimus]
potency as inhibitor of VEGF-induced proliferation relative to the other compounds tested [1]: less potent inhibitors of VEGF-induced proliferation than the other compounds tested
pIC50 [1]: 3.49

Compound: CO[C@H]1C[C@@H]2CC[C@@H](C)[C@@](O)(O2)C(=O)C(=O)N2CCCC[C@H]2C(=O)O[C@H]([C@H](C)C[C@@H]2CC[C@H](n3cnnn3)[C@H](OC)C2)CC(=O)[C@H](C)/C=C(\C)[C@@H](O)[C@@H](OC)C(=O)[C@H](C)C[C@H](C)/C=C/C=C/C=C/1C [zotarolimus]
pIC50 [1]: 8.75
inhibition of neovascular disease (fluorescein angiography grading) [6]: inhibited neovascular disease to a greater extent than a 50 microliter dose of AVASTIN
Solubility, DMSO ([2]; literature values): >1 mg/mL
Solubility, Ethanol ([2]; literature values): >100 mg/mL
Solubility, Aqueous ([2]; pH 6.5, literature value): 0.47 mcg/ml* pH 6.5
Solubility, Aqueous ([2]; pH 7.4, literature value): 0.53 mcg/ml* pH 7.4

Solubility, PEG 400 [3]: >13 mg/g and <22 mg/g
Compound: CC(C)n1nc(-c2cccc(C(=O)NC3=NCCS3)c2)c2c(N)ncnc21 [PP30]
